Assay results from patent US7999011B2, “Method for cardioprotection and neuroprotection by intravenous administration of halogenated volatile anesthetics” (Baxter International Inc., priority 2002, dated 2011).

How the values were obtained:
[1] = Arterial blood gas analysis; format: in vivo, rabbit; conditions: for pH: arterial blood
Protocol: Male New Zealand white rabbits weighing between 2.5 and 3.0 kg were anesthetized with intravenous sodium pentobarbital (30 mg/kg). Additional doses of pentobarbital were titrated as required to assure that pedal and palpebral reflexes were absent throughout the experiment. A tracheotomy was performed through a ventral midline incision, and the trachea was cannulated. The rabbits were ventilated with positive pressure using an air-oxygen mixture (FiO2=0.33). […] Body temperature was maintained with a heating blanket. Heparin-filled catheters were inserted into the right carotid artery and the left jugular vein for measurement of arterial blood pressure and fluid or drug administration, respectively. Maintenance fluids consisted of 0.9% saline (15 ml/kg/h) that were continued for the duration of the experiment.
(§1) Baseline measurements of systemic hemodynamics, arterial blood gas tensions, and blood concentrations of anesthetic agent were performed 30 min after instrumentation was completed. Rabbits received 0.9% saline, drug lipid vehicle (10 ml/h), or intravenous volatile anesthetic (10 ml/h) for 30 min. Infusions were discontinued 30 min prior to coronary occlusion (memory period). Blood concentrations of anesthetic agents were performed at baseline, at the end of anesthetic infusion, and at the end of the memory period just before coronary occlusion). HVA concentrations in blood were determined by gas chromatographic (GC) analysis. All rabbits underwent a 30 min LAD occlusion followed by 3 h reperfusion.
(§2) Statistical analysis of data within and between groups was performed with analysis of variance (ANOVA) for repeated measures followed by Student-Newman-Keuls test. Changes between groups were considered statistically significant when the p value was less than 0.05. All data are expressed as mean±SEM.

End-tidal gas analysis = format: in vivo, rabbit; conditions: for EtHalogenated: end-tidal
Protocol: as §1, §2

[2] = Blood concentration of anesthetics by GC and conversion to MAC-equivalents; format: in vivo, rabbit
Protocol: as §1
Blood concentrations as measured by GC were converted to their MAC-equivalent values by calculations described below. Initially “n”, or the number of moles of HVA in 1 L of alveolar gas during exposure to 1.0 MAC of the HVA was calculated. The ideal gas law n=PV/RT is used to calculate the number of moles of HVA present at 1 MAC in the alveolar gas where: V=1 L, T=273+37=310° (K); and R=0.0821 (universal gas constant). P or pressure was determined taking into account the vapor pressure of water at 37° C. which is 47.1 torr, and the volume percent of the HVA. Volume percentages of HVAs (MAC values) were obtained from literature values determined in rabbits (Scheller et al. Can. J. Anaesth. 1988, 35: 133-136; Drummond, J C Anesthesiology 1985; 62: 336-8, and Doorley et al. Anesthesiology 1988; 69, 89-91), and are presented in Table 8.
The number of moles of the HVA in 1 L at 37° C. at 1 MAC in rabbits was then used to determine the concentration of the HVA present in blood by using known blood/gas partition values (also known as λ). Blood gas partition values for the HVAs used in the study are show in Table 8. The value for “x” (or the equivalent blood concentration of the HVA at 1 MAC at 37° C. in rabbit) is then determined by the equation: x=λn
To express a measured blood concentration of an HVA as a MAC-equivalent value, the measured blood concentration is divided by x. The MAC equivalent values shown in Table 8 were calculated according to the above from the blood concentrations observed (see Table 7).

[3] = Literature MAC values in rabbits and 1 MAC-equivalent blood concentration; format: in vivo; conditions: 37° C., rabbit; x=λn
Protocol: “Minimum alveolar concentration (MAC)”, as is known in the art, is the alveolar concentration of an anesthetic, administered by inhalation at a pressure of 1 atmosphere, that prevents movement in 50% of patients in response to a painful stimuli. The MAC is age-dependent; it may be affected by a patient's medical condition; and it may also be affected by other pharmaceutical agents that are administered to the patient. In the context of intravenous administration of HVAs, the term “MAC” or “MAC-equivalent” is intended to mean an intravenous dose which produces the same blood plasma concentration of an anesthetic agent as that attained by inhalational administration of a gaseous concentration of anesthetic which prevents such movement in 50% of patients.
Blood concentrations as measured by GC were converted to their MAC-equivalent values by calculations described below. Initially “n”, or the number of moles of HVA in 1 L of alveolar gas during exposure to 1.0 MAC of the HVA was calculated.
The number of moles of the HVA in 1 L at 37° C. at 1 MAC in rabbits was then used to determine the concentration of the HVA present in blood by using known blood/gas partition values (also known as λ). […] The value for “x” (or the equivalent blood concentration of the HVA at 1 MAC at 37° C. in rabbit) is then determined by the equation: x=λn

[4] = literature values determined in rabbits; cited from earlier work
[5] = blood/gas; cited from earlier work
[6] = Infusion (end of 30 min, 10 ml/h i.v. infusion)
[7] = Memory (30 min after infusion, just before coronary occlusion)
[8] = measured blood concentration divided by x

SMILES: FCOC(C(F)(F)F)C(F)(F)F [SEVO, sevoflurane]
- PaCO2 ([1]; Baseline): 37 ± 1 mmHg
- PaO2 ([1]; Baseline): 125 ± 8^ mmHg
- PaCO2 ([1]; Infusion): 38 ± 1 mmHg
- PaO2 ([1]; Infusion): 118 ± 6 mmHg
- PaCO2 ([1]; Ischemia 30 min): 40 ± 1 mmHg
- PaO2 ([1]; Ischemia 30 min): 106 ± 12 mmHg
- PaCO2 ([1]; Memory): 41 ± 1 mmHg
- PaO2 ([1]; Memory): 107 ± 11 mmHg
- PaCO2 ([1]; Reperfusion 1 h): 38 ± 1 mmHg
- PaO2 ([1]; Reperfusion 1 h): 120 ± 7 mmHg
- PaCO2 ([1]; Reperfusion 2 h): 38 ± 1 mmHg
- PaO2 ([1]; Reperfusion 2 h): 127 ± 6^ mmHg
- PaCO2 ([1]; Reperfusion 3 h): 39 ± 1 mmHg
- PaO2 ([1]; Reperfusion 3 h): 121 ± 8 mmHg
- pH ([1]; Baseline): 7.44 ± 0.01
- pH ([1]; Infusion): 7.42 ± 0.01
- pH ([1]; Ischemia 30 min): 7.38 ± 0.01
- pH ([1]; Memory): 7.39 ± 0.01
- pH ([1]; Reperfusion 1 h): 7.39 ± 0.01
- pH ([1]; Reperfusion 2 h): 7.40 ± 0.01
- pH ([1]; Reperfusion 3 h): 7.39 ± 0.01
- EtCO2 (End-tidal gas analysis; Baseline): 35 ± 1 mmHg
- EtCO2 (End-tidal gas analysis; Infusion): 36 ± 1 mmHg
- EtCO2 (End-tidal gas analysis; Ischemia 30 min): 35 ± 1 mmHg
- EtCO2 (End-tidal gas analysis; Memory): 36 ± 1 mmHg
- EtCO2 (End-tidal gas analysis; Reperfusion 1 h): 34 ± 1 mmHg
- EtCO2 (End-tidal gas analysis; Reperfusion 2 h): 33 ± 1 mmHg
- EtCO2 (End-tidal gas analysis; Reperfusion 3 h): 34 ± 1 mmHg
- EtHalogenated (End-tidal gas analysis; Baseline): 0%
- EtHalogenated (End-tidal gas analysis; Infusion): 0.34 ± 0.02%
- EtHalogenated (End-tidal gas analysis; Ischemia 30 min): 0.04 ± 0.01%
- EtHalogenated (End-tidal gas analysis; Memory): 0.07 ± 0.01%
- EtHalogenated (End-tidal gas analysis; Reperfusion 1 h): 0.03 ± 0.01%
- EtHalogenated (End-tidal gas analysis; Reperfusion 2 h): 0.04 ± 0.01%
- EtHalogenated (End-tidal gas analysis; Reperfusion 3 h): 0.05 ± 0.01%
- Blood Concentration ([2]; Baseline): 0 µM
- Blood Concentration [2, 6]: 150 ± 10 µM
- Blood Concentration [2, 7]: 20 ± 0 µM
- Observed Blood Concentration following 30 min, 10 mL/h Infusion ([2]; i.v. emulsion): 0.15 mM
- Observed Blood Concentration following 30 min, 10 mL/h Infusion [2, 8]: 0.16 MAC-Equivalents
- 1 MAC-Equivalent Blood Concentration at 1 MAC ("x") [3]: 0.94 mM
- Average MAC [4]: 3.7 % v/v
- Partition Coefficient ("λ") [5]: 0.69

SMILES: FC(F)OC(F)C(F)(F)F (centres unmarked) [DES, desflurane]
- PaCO2 ([1]; Baseline): 29 ± 2 mmHg
- PaO2 ([1]; Baseline): 158 ± 23 mmHg
- PaCO2 ([1]; Infusion): 32 ± 3 mmHg
- PaO2 ([1]; Infusion): 157 ± 17 mmHg
- PaCO2 ([1]; Ischemia 30 min): 31 ± 3 mmHg
- PaO2 ([1]; Ischemia 30 min): 136 ± 24 mmHg
- PaCO2 ([1]; Memory): 34 ± 3 mmHg
- PaO2 ([1]; Memory): 143 ± 17 mmHg
- PaCO2 ([1]; Reperfusion 1 h): 30 ± 4 mmHg
- PaO2 ([1]; Reperfusion 1 h): 141 ± 19 mmHg
- PaCO2 ([1]; Reperfusion 2 h): 26 ± 3 mmHg
- PaO2 ([1]; Reperfusion 2 h): 155 ± 18 mmHg
- PaCO2 ([1]; Reperfusion 3 h): 30 ± 1 mmHg
- PaO2 ([1]; Reperfusion 3 h): 165 ± 12 mmHg
- pH ([1]; Baseline): 7.45 ± 0.02
- pH ([1]; Infusion): 7.40 ± 0.02
- pH ([1]; Ischemia 30 min): 7.34 ± 0.01
- pH ([1]; Memory): 7.36 ± 0.02
- pH ([1]; Reperfusion 1 h): 7.37 ± 0.02
- pH ([1]; Reperfusion 2 h): 7.40 ± 0.01
- pH ([1]; Reperfusion 3 h): 7.41 ± 0.01
- EtCO2 (End-tidal gas analysis; Baseline): 31 ± 2 mmHg
- EtCO2 (End-tidal gas analysis; Infusion): 30 ± 2 mmHg
- EtCO2 (End-tidal gas analysis; Ischemia 30 min): 26 ± 3 mmHg
- EtCO2 (End-tidal gas analysis; Memory): 28 ± 3 mmHg
- EtCO2 (End-tidal gas analysis; Reperfusion 1 h): 29 ± 4 mmHg
- EtCO2 (End-tidal gas analysis; Reperfusion 2 h): 28 ± 3 mmHg
- EtCO2 (End-tidal gas analysis; Reperfusion 3 h): 29 ± 3 mmHg
- EtHalogenated (End-tidal gas analysis; Baseline): 0%
- EtHalogenated (End-tidal gas analysis; Infusion): 0.37 ± 0.03 %
- EtHalogenated (End-tidal gas analysis; Ischemia 30 min): 0.01 ± 0.00%
- EtHalogenated (End-tidal gas analysis; Memory): 0.03 ± 0.01%
- EtHalogenated (End-tidal gas analysis; Reperfusion 1 h): 0.00 ± 0.00%
- EtHalogenated (End-tidal gas analysis; Reperfusion 2 h): 0.00 ± 0.00%
- EtHalogenated (End-tidal gas analysis; Reperfusion 3 h): 0.00 ± 0.00%
- Blood Concentration ([2]; Baseline): 0 µM
- Blood Concentration [2, 6]: 180 ± 30 µM
- Blood Concentration [2, 7]: 30 ± 20 µM
- Observed Blood Concentration following 30 min, 10 mL/h Infusion ([2]; i.v. emulsion): 0.18 mM
- Observed Blood Concentration following 30 min, 10 mL/h Infusion [2, 8]: 0.13 MAC-Equivalents
- 1 MAC-Equivalent Blood Concentration at 1 MAC ("x") [3]: 1.38 mM
- Average MAC [4]: 8.9 % v/v
- Partition Coefficient ("λ") [5]: 0.42
